The source of these data is patent US20230416293A1, “SYNTHESIS OF [18F]-LABELED THYMIDINE ANALOGUES” (UNIVERSITY OF SOUTHERN CALIFORNIA, priority 2020, published 2023).

A short description of series [1]: 1-octanol/PBS partition coefficient (Log P). Type of series: physicochemical. The following applies: for Partition coefficients of 1-octanol/PBS: room temperature, PBS pH 7.4, quintuplicate.
Series [2] has as its system MDA-MB-231 tumor. Kind of series: microPET imaging of subcutaneous MDA-MB-231 tumor-bearing nude mice. Format: in vivo. The following applies: MDA-MB-231 tumor model; for tumor uptake: intravenous, n=3.
Protocol: (§1) After the intravenous injection of [^18F]FMAU at 1 h and 2 h, the mice (n=3/group) were scanned through a microPET imaging system. […] For microPET scans, radioactivity accumulations in tumors and major tissues/organs were quantified by calculating the ROIs that comprised the entire organ on the coronal images.
(§2) Tumor cells were cultured in Dulbecco's Modified Eagle Medium (DMEM) supplemented with 10% fetal bovine serum at 37° C. in a humidified incubator containing 5% CO2.
(§3) Both MDA-MB-231 and U-87 MG tumor xenograft models (n=3/group) were generated by subcutaneous injection of 5×10^6 tumor cells into the front right flank of female athymic nude mice (4-6 weeks old) purchased from Envigo Inc., Indianapolis, IN. The tumors were permitted to grow 2-4 weeks until approximate 0.6-0.8 cm^3 in volume.
(§4) MicroPET scans were carried out using a rodent scanner (Siemens Inveon microPET scanner, Siemens Medical Solutions). About 7.4 MBq (200 μCi) of [^18F]FMAU was injected through the tail vein under isoflurane anesthesia condition. Five-minute static scans were obtained at 60- and 120-min post-injection (p.i.). The 3D-OSEM algorithm was applied for image reconstruction. For each microPET scan, the regions of interest (ROIs) were drawn over tumor, muscle, liver, and kidneys on the decay-corrected whole-body coronal images. The tumor-to-muscle (T/M), tumor-to-liver (T/L), and tumor-to-kidney (T/K) ratios were then calculated.
Series [3] has as its system U-87 MG tumor. The experiment in a line: microPET imaging of subcutaneous U-87 MG tumor-bearing nude mice. Type of series: in vivo. To be noted: U-87 MG tumor model; for tumor uptake: intravenous, n=3.
Protocol: as §1, §2, §3, §4
[4] abbreviates: 1-octanol/PBS pH 7.4, room temperature, quintuplicate.

For the compound `O=c1ccn([C@@H]2O[C@H](CO)[C@@H](O)[C@@H]2[18F])c(=O)[nH]1` [[^18F]FAU, 2′-Deoxy-2′-[^18F]fluoro-1-β-D-arabinofuranosyluracil], the Log P (commonly the decadic logarithm of the partition coefficient of the neutral form, usually between octanol and water) in series [1] (setting [4]) is on record as −0.943±0.041. Also, in series [1], the “Partition coefficients of 1-octanol/PBS” value came out at 0.114 ± 0.011.
For the compound `O=c1[nH]c(=O)n([C@@H]2O[C@H](CO)[C@@H](O)[C@@H]2F)cc1Br` [[^18F]FBAU, 1-(2-deoxy-2-fluoro-β-D-arabinofuranosyl)-5-bromouracil], the logP (as a rule, the decadic logarithm of the partition coefficient of the neutral form, usually between octanol and water) in series [1] (setting [4]) is -0.367 ± 0.025.
Consider `O=c1[nH]c(=O)n([C@@H]2O[C@H](CO)[C@@H](O)[C@@H]2[18F])cc1Cl` [[^18F]FCAU, 2′-deoxy-2′-[^18F]fluoro-5-chloro-1-β-D-arabinofuranosyluracil], for which the “Log P” value in series [1] (setting [4]) is recorded as −0.477±0.030. Further, the “Partition coefficients of 1-octanol/PBS” value in series [1] is given as 0.334 ± 0.022.
The corresponding values for `CCc1cn([C@@H]2O[C@H](CO)[C@@H](O)[C@@H]2[18F])c(=O)[nH]c1=O` [[^18F]FEAU, 2′-deoxy-2′-[^18F]fluoro-5-ethyl-1-β-D-arabinofuranosyluracil] are −0.077±0.018 and 0.837 ± 0.035.
Take `O=c1[nH]c(=O)n([C@@H]2O[C@H](CO)[C@@H](O)[C@@H]2[18F])cc1F` [[^18F]FFAU, 2′-deoxy-2′-[^18F]fluoro-5-fluoro-1-β-D-arabinofuranosyluracil]: the log partition coefficient (Log P) in series [1] (setting [4]) is −0.952±0.023. Moreover, in series [1], the “Partition coefficients of 1-octanol/PBS” value was determined as 0.113 ± 0.006.
On to `O=c1[nH]c(=O)n([C@@H]2O[C@H](CO)[C@@H](O)[C@@H]2[18F])cc1I` [[^18F]FIAU, 2′-deoxy-2′-[^18F]fluoro-5-iodo-1-β-D-arabinofuranosyluracil], for which the “Log P” value in series [1] (setting [4]) is on record as −0.108±0.013. In addition, in series [1], the “Partition coefficients of 1-octanol/PBS” value turned out to be 0.780 ± 0.024.
For `Cc1cn([C@@H]2O[C@H](CO)[C@@H](O)[C@@H]2[18F])c(=O)[nH]c1=O` [[^18F]FMAU, 2′-Deoxy-2′-[^18F]fluoro-5-methyl-1-β-D-arabinofuranosyluracil], the “Log P” value in series [1] (setting [4]) is recorded as −0.577±0.003. In series [1], the “Partition coefficients of 1-octanol/PBS” value amounted to 0.265 ± 0.002. Besides, in series [2] (1 h p.i.), the “ratio of tumor uptake to kidney uptake (T/K)” value (shortened to “ratio of tumor uptake … (T/K)”) is on record as 1.9±0.5, the “ratio of tumor uptake to liver uptake (T/L)” value (“ratio of tumor uptake … (T/L)” for short) came to 2.1±0.2, the “ratio of tumor uptake to muscle uptake (T/M)” value (shortened to “ratio of tumor uptake … (T/M)”) is given as 2.8±0.3 and the tumor uptake was determined as 6.4±0.4 % ID/g. Besides, in series [2] (2 h p.i.), the “ratio of tumor uptake … (T/K)” value was found to be 1.9±0.5, the “ratio of tumor uptake … (T/L)” value is on record as 2.5±0.2, the “ratio of tumor uptake … (T/M)” value is 3.2±0.7 and the tumor uptake turned out to be 7.2±0.6 % ID/g. Besides, in series [3] (1 h p.i.), the “ratio of tumor uptake … (T/K)” value is listed as 1.4±0.2, the “ratio of tumor uptake … (T/L)” value is on record as 1.4±0.3, the “ratio of tumor uptake … (T/M)” value came out at 1.8±0.2 and the tumor uptake stood at 6.0±0.2 % ID/g. Further, in series [3] (2 h p.i.), the “ratio of tumor uptake … (T/K)” value stood at 1.3±0.1, the “ratio of tumor uptake … (T/L)” value was 1.5±0.3, the “ratio of tumor uptake … (T/M)” value worked out at 1.9±0.3 and the tumor uptake was determined as 5.6±0.4 % ID/g.
